From patent publication US20080171716A1, “NUCLEIC ACID MODULATION OF TOLL-LIKE RECEPTOR-MEDIATED IMMUNE STIMULATION” (Protiva Biotherapeutics, Inc., priority 2006, published 2008)

Assays:
[1] = biological target: T1, TLR7 (Mus musculus, UniProt P58681); test: In vivo cytokine induction by formulated ssRNA in mice; set-up: from tissue; host or cells: whole animal: female Balb/C mice, plasma cytokines; species or system Balb/C mice; details: IV
T1 sequence (P58681 27-1050): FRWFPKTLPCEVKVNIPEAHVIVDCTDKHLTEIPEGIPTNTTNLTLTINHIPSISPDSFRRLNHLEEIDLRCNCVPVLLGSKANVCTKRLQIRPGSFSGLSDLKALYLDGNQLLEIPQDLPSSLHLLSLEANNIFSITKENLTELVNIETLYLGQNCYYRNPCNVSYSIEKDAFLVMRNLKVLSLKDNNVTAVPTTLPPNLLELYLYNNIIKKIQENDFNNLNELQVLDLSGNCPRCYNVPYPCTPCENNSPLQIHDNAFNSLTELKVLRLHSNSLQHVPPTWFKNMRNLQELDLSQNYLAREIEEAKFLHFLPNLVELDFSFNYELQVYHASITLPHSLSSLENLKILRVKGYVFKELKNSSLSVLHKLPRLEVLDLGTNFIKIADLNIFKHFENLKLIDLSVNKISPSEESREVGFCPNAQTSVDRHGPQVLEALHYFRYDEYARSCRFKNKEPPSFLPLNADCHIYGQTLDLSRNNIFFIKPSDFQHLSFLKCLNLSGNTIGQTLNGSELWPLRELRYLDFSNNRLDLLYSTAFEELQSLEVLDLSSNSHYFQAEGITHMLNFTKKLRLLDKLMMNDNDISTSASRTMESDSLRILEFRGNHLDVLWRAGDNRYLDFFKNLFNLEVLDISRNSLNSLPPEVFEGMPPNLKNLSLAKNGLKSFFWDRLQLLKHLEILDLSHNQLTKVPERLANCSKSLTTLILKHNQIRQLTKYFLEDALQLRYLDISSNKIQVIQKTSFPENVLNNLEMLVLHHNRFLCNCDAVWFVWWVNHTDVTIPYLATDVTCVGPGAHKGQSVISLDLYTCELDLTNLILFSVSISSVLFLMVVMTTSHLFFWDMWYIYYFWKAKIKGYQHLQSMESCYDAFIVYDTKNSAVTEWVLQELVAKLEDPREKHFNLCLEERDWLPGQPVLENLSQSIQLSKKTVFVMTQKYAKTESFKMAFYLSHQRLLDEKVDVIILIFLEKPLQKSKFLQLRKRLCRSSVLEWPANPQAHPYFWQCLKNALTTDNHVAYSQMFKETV
Method: Cytokine ELISA. All cytokines were quantified using sandwich ELISA kits according to the manufacturer's instructions. These were mouse and human IFN-α (PBL Biomedical; Piscataway, N.J.) and IL-6 (eBioscience; San Diego, Calif.).
In Vivo Cytokine Induction. Animal studies were performed at Protiva Biotherapeutics in accordance with Canadian Council on Animal Care guidelines and following protocol approval by the local Animal Care and Use Committee. Female Balb/C mice were subjected to a two-week quarantine and acclimation period prior to use at six to eight-weeks of age. RNA formulations were administered by standard injection in the lateral tail vein in 0.2 ml PBS. Six hours after injection, blood was collected by cardiac puncture and processed as plasma for cytokine analysis. In experiments studying inhibition of cytokine induction by loxoribine, formulated RNA (100 μg) was administered IV 2 h prior to IV administration of 1 mg loxoribine in PBS. Blood was collected by cardiac puncture 2 h after administration of loxoribine and processed as plasma for cytokine analysis.

[2] = biological target: T1, TLR7; test: Immunostimulatory ssRNA-induced IFN-α/IL-6 production in murine Flt3L-derived dendritic cells; type: cell-based; set-up: Femurs and tibiae of female Balb/C mice were isolated; endogenous in cells; host or cells: Flt3L-derived dendritic cells cultured from bone marrow of female Balb/C mice; details: murine Flt3L DC; 1:1 molar ratio; 24 h
Method: Lipid Encapsulation of RNA and ODN. RNA or ODN were encapsulated in liposomes by a process of spontaneous vesicle formation as described in Judge et al., supra, and Jeffs et al., Pharm. Res., 22:362-372 (2005).
Flt3L-derived dendritic cells (DC) were generated as described in Gilliet et al., J. Exp. Med., 195:953-958 (2002), using 100 ng/ml murine Flt3-ligand (Peprotech) supplemented media. Femurs and tibiae of female Balb/C mice were isolated and rinsed in sterile PBS. The ends of bones were cut and marrow harvested in complete media (RPMI 1640, 10% heat inactivated FBS, 1% penicillin/streptomycin, 2 mM L-glutamine, 1 mM sodium pyruvate, 25 mM HEPES, 50 μM 2-mercaptoethanol). Bone marrow cells were passed through a 70 μm strainer and centrifuged at 1000 rpm for 7 min. and resuspended in complete media supplemented with 100 ng/ml murine Flt3L to 2×10^6 cells/ml. 2 ml of cells were seeded in 6-well plates and 1 ml fresh media was added every two to three days. On day 9 of culture, non-adherent cells were washed in complete media and plated into 96-well plates at concentrations ranging from 0.5 to 2.5×10^5 cells/well. […]
Cytokine ELISA. All cytokines were quantified using sandwich ELISA kits according to the manufacturer's instructions. […]

[3] = 1:1 molar ratio in lipid particles, 40 μg βgal AS RNA, plasma 6 h
[4] = plasma 6 h after administration

With “polyUmod21: 2′OMe-uridine homopolymer of 21 nucleotides in length (UUUUUUUUUUUUUUUUUUUUU; all 2'-O-methyl, backbone not given here)” the “IFN-α induction by ssRNA agonist when co-formulated” value [1, 3] was “eliminated measurable”, the “IL-6 induction by ssRNA agonist when co-formulated” value [1, 3] was “eliminated measurable” and the “plasma IFN-α after administration of the formulated RNA alone” value [1, 4] was “no measurable cytokine response”. For the same substance, the “plasma IL-6 after administration of the formulated RNA alone” value [1, 4] was “no measurable cytokine response”, the “IFN-α production induced by immunostimulatory ssRNA when co-administered” value [2] was “completely abrogated measurable” and the “IL-6 production induced by immunostimulatory ssRNA when co-administered” value [2] was “completely abrogated measurable”.
